Reference: ChEMBL document CHEMBL1201862, “PubChem BioAssay data set” (2004)
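Test compounds were applied to cells in 96-well plates for 48 hours at 5 doses. At the GI50, growth is halved.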 Calls of active or inactive are those of the source. Cut-off read from the data, not from the text of the source: active = GI50 up to about 1.1 µM and inactive = higher.

Columns and labels:
Assay in all cases: DTP human tumour cell line panel, 48 h
[1] = tested on: M19-MEL
[2] = tested on: LXFL 529
[3] = tested on: K562
[4] = tested on: KM-20L2
[5] = tested on: Malme-3M
[6] = tested on: SW-620
[7] = tested on: HOP-92
[8] = tested on: LOX IMVI
[9] = tested on: EKVX
[10] = tested on: SK-MEL-2
[11] = tested on: OVCAR-8
[12] = tested on: 786-0
[13] = tested on: SF-268
[14] = tested on: HCT-15
[15] = tested on: DMS-273
[16] = tested on: HCT-116
[17] = tested on: SR

## CCc1ccccc1NC(=O)C1=C(C)NC(C)=C(C(=O)Nc2ccccc2CC)C1c1ccc2c(c1)OCO2
[1]
  GI50: 40.9 µM (inactive)
[2]
  GI50: 31.3 µM (inactive)
[3]
  GI50: 26.5 µM (inactive)
[4]
  GI50: > 10 µM (inactive)
[5]
  GI50: 25.3 µM (inactive)
[6]
  GI50: 28.9 µM (inactive)
[7]
  GI50: 13.6 µM (inactive)
[8]
  GI50: 24.4 µM (inactive)
[9]
  GI50: 31.3 µM (inactive)
[10]
  GI50: 19.2 µM (inactive)
[11]
  GI50: 33.7 µM (inactive)
[12]
  GI50: 30.4 µM (inactive)
[13]
  GI50: 25.2 µM (inactive)

## Nc1ccccc1S(=O)(=O)N(CC(=O)O)c1ccccc1
[1]
  GI50: > 100 µM (inactive)
[2]
  GI50: > 100 µM (inactive)
[3]
  GI50: > 100 µM (inactive)
[4]
  GI50: > 100 µM (inactive)
[5]
  GI50: > 100 µM (inactive)
[14]
  GI50: > 100 µM
[6]
  GI50: > 100 µM (inactive)
[7]
  GI50: > 100 µM (inactive)
[8]
  GI50: > 100 µM (inactive)
[9]
  GI50: > 100 µM (inactive)
[10]
  GI50: > 100 µM (inactive)
[15]
  GI50: > 100 µM (inactive)
[11]
  GI50: > 100 µM (inactive)
[12]
  GI50: > 100 µM (inactive)
[13]
  GI50: > 100 µM (inactive)

## CC(=O)OC1(C#N)CC2OC1C1NC21 (stereo unspecified)
[1]
  GI50: > 100 µM (inactive)
[2]
  GI50: > 100 µM (inactive)
[3]
  GI50: > 100 µM (inactive)
[4]
  GI50: > 100 µM (inactive)
[5]
  GI50: > 100 µM (inactive)
[14]
  GI50: > 100 µM
[6]
  GI50: > 100 µM (inactive)
[7]
  GI50: > 100 µM (inactive)
[8]
  GI50: > 100 µM (inactive)
[9]
  GI50: > 100 µM (inactive)
[10]
  GI50: > 100 µM (inactive)
[11]
  GI50: > 100 µM (inactive)
[12]
  GI50: > 100 µM (inactive)
[13]
  GI50: > 100 µM (inactive)
[16]
  GI50: > 100 µM (inactive)

## O=C(CNc1nncs1)NO
[1]
  GI50: > 100 µM (inactive)
[2]
  GI50: > 100 µM (inactive)
[3]
  GI50: > 100 µM (inactive)
[4]
  GI50: > 100 µM (inactive)
[5]
  GI50: > 100 µM (inactive)
[14]
  GI50: > 100 µM
[6]
  GI50: > 100 µM (inactive)
[7]
  GI50: 38.2 µM (inactive)
[9]
  GI50: > 100 µM (inactive)
[10]
  GI50: > 100 µM (inactive)
[15]
  GI50: > 100 µM (inactive)
[11]
  GI50: > 100 µM (inactive)
[12]
  GI50: > 100 µM (inactive)
[13]
  GI50: > 100 µM (inactive)
[16]
  GI50: > 100 µM (inactive)

## COC[C@@H](/N=C/N1CCc2cc(OC)c(OC)cc2[C@@H]1C)C(C)(C)C
[17]
  GI50: > 100 µM (inactive)
[1]
  GI50: > 100 µM (inactive)
[2]
  GI50: > 100 µM (inactive)
[3]
  GI50: > 100 µM (inactive)
[4]
  GI50: > 100 µM (inactive)
[5]
  GI50: > 100 µM (inactive)
[14]
  GI50: > 100 µM
[6]
  GI50: > 100 µM (inactive)
[7]
  GI50: > 100 µM (inactive)
[9]
  GI50: > 100 µM (inactive)
[10]
  GI50: 86.7 µM (inactive)
[11]
  GI50: > 100 µM (inactive)
[12]
  GI50: > 100 µM (inactive)
[13]
  GI50: > 100 µM (inactive)
[16]
  GI50: > 100 µM (inactive)

## O=C1NC(=O)C2C1N(Cc1ccccc1)C(=O)N2Cc1ccccc1 (stereo unspecified)
[17]
  GI50: > 100 µM (inactive)
[1]
  GI50: > 100 µM (inactive)
[2]
  GI50: > 100 µM (inactive)
[3]
  GI50: > 100 µM (inactive)
[4]
  GI50: > 100 µM (inactive)
[5]
  GI50: > 100 µM (inactive)
[14]
  GI50: > 100 µM
[6]
  GI50: > 100 µM (inactive)
[7]
  GI50: > 100 µM (inactive)
[8]
  GI50: > 100 µM (inactive)
[9]
  GI50: > 100 µM (inactive)
[12]
  GI50: > 100 µM (inactive)
[13]
  GI50: > 100 µM (inactive)
[16]
  GI50: > 100 µM (inactive)

## Cc1ccc(S(=O)(=O)NC2CCCCO2)cc1 (stereo unspecified)
[1]
  GI50: > 100 µM (inactive)
[2]
  GI50: > 100 µM (inactive)
[3]
  GI50: > 100 µM (inactive)
[4]
  GI50: > 100 µM (inactive)
[5]
  GI50: > 100 µM (inactive)
[14]
  GI50: > 100 µM
[6]
  GI50: > 100 µM (inactive)
[7]
  GI50: > 100 µM (inactive)
[8]
  GI50: > 100 µM (inactive)
[9]
  GI50: > 100 µM (inactive)
[15]
  GI50: > 100 µM (inactive)
[11]
  GI50: > 100 µM (inactive)
[12]
  GI50: > 100 µM (inactive)
[13]
  GI50: > 100 µM (inactive)
[16]
  GI50: > 100 µM (inactive)

## O=C(NC1CCC[C@H]1OC(=O)c1ccccc1)c1ccccc1 (stereo partly specified)
[17]
  GI50: 47.2 µM (inactive)
[1]
  GI50: > 100 µM (inactive)
[3]
  GI50: 38 µM (inactive)
[4]
  GI50: > 10 µM (inactive)
[5]
  GI50: 0.0489 µM (active)
[6]
  GI50: > 100 µM (inactive)
[7]
  GI50: 25.6 µM (inactive)
[9]
  GI50: > 100 µM (inactive)
[10]
  GI50: > 100 µM (inactive)
[15]
  GI50: 95.7 µM (inactive)
[11]
  GI50: > 100 µM (inactive)
[12]
  GI50: > 100 µM (inactive)
[13]
  GI50: 86.5 µM (inactive)
[16]
  GI50: 81.3 µM (inactive)

## CC1C(=O)CCC1C(Sc1ccccc1)(Sc1ccccc1)Sc1ccccc1 (stereo unspecified)
[1]
  GI50: 21.1 µM (inactive)
[2]
  GI50: 17.1 µM (inactive)
[3]
  GI50: 20.5 µM (inactive)
[5]
  GI50: 37.1 µM (inactive)
[14]
  GI50: 30.3 µM
[6]
  GI50: 27 µM (inactive)
[7]
  GI50: 8.43 µM (inactive)
[8]
  GI50: 21 µM (inactive)
[9]
  GI50: 55.6 µM (inactive)
[10]
  GI50: 34.9 µM (inactive)
[15]
  GI50: 23.3 µM (inactive)
[11]
  GI50: 24.3 µM (inactive)
[12]
  GI50: 22.5 µM (inactive)
[13]
  GI50: 10.7 µM (inactive)
[16]
  GI50: 16.1 µM (inactive)

## Cc1ccc(C)c(NC(=O)c2cccc([N+](=O)[O-])c2O)c1
[1]
  GI50: 24.7 µM (inactive)
[2]
  GI50: 35.5 µM (inactive)
[3]
  GI50: > 100 µM (inactive)
[4]
  GI50: 24.6 µM (inactive)
[5]
  GI50: 17.8 µM (inactive)
[14]
  GI50: 28.8 µM
[6]
  GI50: 37.6 µM (inactive)
[7]
  GI50: 12.7 µM (inactive)
[8]
  GI50: 16.7 µM (inactive)
[9]
  GI50: 29.5 µM (inactive)
[15]
  GI50: 24.1 µM (inactive)
[11]
  GI50: 32.1 µM (inactive)
[12]
  GI50: 44.1 µM (inactive)
[13]
  GI50: 22 µM (inactive)
[16]
  GI50: 23.1 µM (inactive)
